Key:
Rec-1 cells = test: Ibrutinib-BFL fluorescence imaging of captured cells on the microfluidic device; assay type: cell-based; settings: Rec-1 mantle cell lymphoma cells, FIG. 24
Jurkat cells = test: as above; assay type: cell-based; settings: FIG. 24

Cc1cc(C)n2c1C=C1C=CC(CCC(=O)NCC=CC(=O)N3CCCC(n4nc(-c5ccc(Oc6ccccc6)cc5)c5c(N)ncnc54)C3)=[N+]1[B-]2(F)F (centres unmarked) [Ibrutinib-BFL]
fluorescence of cells when incubated with the imaging drug (binding) (Rec-1 cells): exhibit fluorescence | fluorescence of cells when incubated with the imaging drug (binding) (Jurkat cells): do not exhibit fluorescent
